The assay relates to PDC 899932-113-R3-J6 complex spheroid viability. Briefly: Anticancer human tumor 899932-113-R3-J6-PDC patient-derived melanoma cell line growth inhibition [RAS]. The note with it: for viability, T/C: stronger effect = lower value. Summed up:
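Multi-cell-type spheroids: tumor cells plus HUVEC endothelial cells and mesenchymal stem cells. RAS-pathway inhibitors were combined with targeted agents, each dosed in half-log steps down from clinical Cmax, or from 10 microM when Cmax was unknown.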

The mark [1] stands for this setting: curve of first compound, second compound 0.000949 µM.
Where [2] appears, read: curve of first compound, second compound 0.003 µM.
Setting [3] is: curve of first compound, second compound 0.00949 µM.
The mark [4] stands for this setting: curve of first compound, second compound 0.03 µM.
The mark [5] stands for this setting: curve of first compound, second compound 0.0949 µM.
Where [6] appears, read: curve of first compound, second compound 0.3 µM.
The mark [7] stands for this setting: second compound 0.000949 µM, first compound 0.0316 µM.
[8] abbreviates: second compound 0.000949 µM, first compound 0.1 µM.
Setting [9] is: second compound 0.000949 µM, first compound 0.316 µM.
[10] abbreviates: second compound 0.000949 µM, first compound 1 µM.
[11] abbreviates: second compound 0.000949 µM, first compound 3.16 µM.
[12] abbreviates: second compound 0.000949 µM, first compound 10 µM.
[13] abbreviates: second compound 0.003 µM, first compound 0.0316 µM.
The mark [14] stands for this setting: second compound 0.003 µM, first compound 0.1 µM.
[15] abbreviates: second compound 0.003 µM, first compound 0.316 µM.
[16] abbreviates: second compound 0.003 µM, first compound 1 µM.
[17] abbreviates: second compound 0.003 µM, first compound 3.16 µM.
Setting [18] is: second compound 0.003 µM, first compound 10 µM.
The mark [19] stands for this setting: second compound 0.00949 µM, first compound 0.0316 µM.
[20] abbreviates: second compound 0.00949 µM, first compound 0.1 µM.
Setting [21] is: second compound 0.00949 µM, first compound 0.316 µM.
The mark [22] stands for this setting: second compound 0.00949 µM, first compound 1 µM.
[23] abbreviates: second compound 0.00949 µM, first compound 3.16 µM.
Where [24] appears, read: second compound 0.00949 µM, first compound 10 µM.
[25] abbreviates: second compound 0.03 µM, first compound 0.0316 µM.
Setting [26] is: second compound 0.03 µM, first compound 0.1 µM.
[27] abbreviates: second compound 0.03 µM, first compound 0.316 µM.
Where [28] appears, read: second compound 0.03 µM, first compound 1 µM.
Setting [29] is: second compound 0.03 µM, first compound 3.16 µM.
Setting [30] is: second compound 0.03 µM, first compound 10 µM.
Setting [31] is: second compound 0.0949 µM, first compound 0.0316 µM.
Where [32] appears, read: second compound 0.0949 µM, first compound 0.1 µM.
The mark [33] stands for this setting: second compound 0.0949 µM, first compound 0.316 µM.
Setting [34] is: second compound 0.0949 µM, first compound 1 µM.
The mark [35] stands for this setting: second compound 0.0949 µM, first compound 3.16 µM.
Where [36] appears, read: second compound 0.0949 µM, first compound 10 µM.
Where [37] appears, read: second compound 0.3 µM, first compound 0.0316 µM.
Setting [38] is: second compound 0.3 µM, first compound 0.1 µM.
The mark [39] stands for this setting: second compound 0.3 µM, first compound 0.316 µM.
Where [40] appears, read: second compound 0.3 µM, first compound 1 µM.
Setting [41] is: second compound 0.3 µM, first compound 3.16 µM.
Where [42] appears, read: second compound 0.3 µM, first compound 10 µM.

Where “and” joins values, the source holds several entries; their conditions need not be identical. Equal entries are not always repeated.
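Wherever viability, T/C is given: spheroids exposed to agents for seven days before readout; 100% = DMSO vehicle control wells.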

`C[C@@H](NC(=O)c1ncnc(N)c1Cl)c1ncc(C(=O)Nc2cc(C(F)(F)F)c(Cl)cn2)s1` + CCn1c(-c2cccnc2C(C)OC)c2c3cc(ccc31)N1CCOC(CC(NC(=O)C(C(C)C)N(C)C(=O)C3(F)CCN(C(=O)C#CC(C)(C)N(C)C)CC3)C(=O)N3CCCC(N3)C(=O)OCC(C)(C)C2)C1: the IC50 – broadly, the concentration needed to halve the response being measured – is 9.8 µM under setting [1]; 8.89 µM under setting [2]; 9.63 µM under setting [3]; > 10 µM under setting [4]; > 10 µM under setting [5]; > 10 µM under setting [6]. For the same molecule, the viability, T/C (in general, the result in the treated group divided by that in the control group, in per cent) runs as follows: under setting [7], 117%; under setting [8], 129%; under setting [9], 141%; under setting [10], 141%; under setting [11], 120%; under setting [12], 48.9%. The viability, T/C runs as follows: under setting [13], 122%; under setting [14], 125%; under setting [15], 137%; under setting [16], 150%; under setting [17], 119%; under setting [18], 42.2%. The viability, T/C runs as follows: under setting [19], 125%; under setting [20], 127%; under setting [21], 140%; under setting [22], 139%; under setting [23], 120%; under setting [24], 47.1%. Moreover, the viability, T/C reads like this: under setting [25], 121%; under setting [26], 132%; under setting [27], 139%; under setting [28], 141%; under setting [29], 130%; under setting [30], 52.5%. Further, the viability, T/C is, setting by setting: under setting [31], 114%; under setting [32], 127%; under setting [33], 135%; under setting [34], 138%; under setting [35], 120%; under setting [36], 51.6%. Further, the viability, T/C under setting [37] was 108%; the viability, T/C under setting [38] was 118%; the viability, T/C under setting [39] was 127%; the viability, T/C under setting [40] is 134%; the viability, T/C under setting [41] was 117%; the viability, T/C under setting [42] is 54%.

For `CC(Nc1ccc2c(c1)OCCn1cc(N3C(=O)OCC3C(F)F)nc1-2)C(N)=O` (stereo unspecified), the viability, T/C runs as follows: (compound 0.0316 µM) 104% [middle of 4 runs]; (compound 0.1 µM) 71.2% [middle of 4 runs]; (compound 0.316 µM) 63.9% [middle of 4 runs]; (compound 1 µM) 58.4% [middle of 4 runs]; (compound 3.16 µM) 46.1% (2×) and 45.7% and 46%; (compound 10 µM) 35.1% [middle of 4 runs]. For the same molecule, the IC50 (curve of compound) was 1.74 µM [middle of 4 runs].

Turning to `C[C@@H](NC(=O)c1ncnc(N)c1Cl)c1ncc(C(=O)Nc2cc(C(F)(F)F)c(Cl)cn2)s1`, the viability, T/C runs as follows: (compound 0.0316 µM) 126% [middle of 4 runs]; (compound 0.1 µM) 132% [middle of 4 runs]; (compound 3.16 µM) 105% [middle of 4 runs]; (compound 10 µM) 32.6% [middle of 4 runs]. In addition, where the note is “curve of compound”, the IC50 is 7.59 µM [middle of 4 runs].

Turning to `CC(C)NCC(C(=O)N1CCN(c2ncnc3c2C(C)CC3O)CC1)c1ccc(Cl)cc1` (stereo unspecified) + CCn1c(-c2cccnc2C(C)OC)c2c3cc(ccc31)N1CCOC(CC(NC(=O)C(C(C)C)N(C)C(=O)C3(F)CCN(C(=O)C#CC(C)(C)N(C)C)CC3)C(=O)N3CCCC(N3)C(=O)OCC(C)(C)C2)C1, the IC50 was 5.52 µM under setting [1]; 5.97 µM under setting [2]; 5.59 µM under setting [3]; 4.9 µM under setting [4]; 3.86 µM under setting [5]; 2.64 µM under setting [6]. Besides, the viability, T/C under setting [7] is 105%; the viability, T/C under setting [8] is 97.3%; the viability, T/C under setting [9] is 97%; the viability, T/C under setting [10] is 84.2%; the viability, T/C under setting [11] was 62.5%; the viability, T/C under setting [12] was 36.5%. Moreover, the viability, T/C was 112% under setting [13]; 106% under setting [14]; 97.3% under setting [15]; 80% under setting [16]; 68.7% under setting [17]; 36.5% under setting [18]. The viability, T/C runs as follows: under setting [19], 111%; under setting [20], 107%; under setting [21], 96%; under setting [22], 90.7%; under setting [23], 59.2%; under setting [24], 39%. Also, the viability, T/C runs as follows: under setting [25], 99.3%; under setting [26], 105%; under setting [27], 96.2%; under setting [28], 80.8%; under setting [29], 58%; under setting [30], 38%. The viability, T/C by setting is: under setting [31], 97.3%; under setting [32], 97.8%; under setting [33], 88%; under setting [34], 71.4%; under setting [35], 53.8%; under setting [36], 36.7%. In addition, the viability, T/C reads like this: under setting [37], 89.1%; under setting [38], 84.8%; under setting [39], 74.3%; under setting [40], 60.2%; under setting [41], 49.5%; under setting [42], 32.6%.

The values above are taken from PubChem BioAssay AID2060895 (Molecular Pharmacology Branch, DTP, NCI, 2025).
